What was measured:
[1] = Cytotoxicity against human ACT1 cells assessed as reduction in cell viability incubated for 72 hrs by Cell-titer 96 aqueous one assay; assay type: functional, cell-based
[2] = Cytotoxicity against human FRTL5 cells assessed as reduction in cell viability incubated for 72 hrs by Cell-titer 96 aqueous one assay; assay type: cell-based; details: FRTL-5, 72 h
[3] = Cytotoxicity against human FRO cells assessed as reduction in cell viability in presence of shHMGA1 incubated for 72 hrs by Cell-titer 96 aqueous one assay; assay type: functional, cell-based
8505C = experiment: Cytotoxicity against human 8505C cells assessed as reduction in cell viability incubated for 72 hrs by Cell-titer 96 aqueous one assay; assay type: functional, cell-based
[4] = Potency index, ratio of IC50 for mycalol to IC50 for test compound against human FRO cells assessed as reduction in cell viability incubated for 72 hrs by Cell-titer 96 aqueous one assay; assay type: functional
[5] = Cytotoxicity against human FRO cells assessed as reduction in cell viability incubated for 72 hrs by Cell-titer 96 aqueous one assay; assay type: functional, cell-based

CCCCCCC[C@H](CCCCCCCCCC[C@H](O)[C@H](O)CC[C@H](O)[C@H](O)CCOC[C@H](O)CO)OC(C)=O (stereo in doubt; form 2)
IC50 [1]: 5.1 µM | IC50 [2]: > 40 µM | IC50 [3]: 3.4 µM | IC50 (8505C; 8505c): 2.1 µM

CCCCCCC[C@H](CCCCCCCCCC[C@H](O)[C@H](O)CC[C@H](O)[C@H](O)CCOC[C@H](O)CO)OC(C)=O (stereo in doubt; form 1)
Ratio IC50 [4]: 6 | IC50 ([1]; Homo sapiens, 72 h): 4.8 µM | IC50 ([3]; Homo sapiens, 72 h): 3.3 µM | IC50 [5]: 2.3 µM | IC50 (8505C; Homo sapiens, 8505C, 72 h): 2.6 µM

CCCCCCCC[C@H](CCCCCCCCCC[C@H](O)[C@H](O)CC[C@H](O)[C@H](O)CCOC[C@H](O)CO)OC(=O)C[C@H](C)O
IC50 [5]: 20 µM

CCCCCCC[C@H](CCCCCCCCCC[C@H](O)[C@H](O)CC[C@H](O)[C@H](O)CCOC[C@H](O)CO)OC(=O)C[C@H](C)O
IC50 [5]: 16 µM

CCCCC[C@H](CCCCCCCCCC[C@H](O)[C@H](O)CC[C@H](O)[C@H](O)CCOC[C@H](O)CO)OC(C)=O
IC50 [5]: 16 µM

CCCCCCCCC[C@H](CCCCCCCCCC[C@H](O)[C@H](O)CC[C@H](O)[C@H](O)CCOC[C@H](O)CO)OC(=O)C[C@H](C)O
IC50 [5]: 4.7 µM
